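Compound exposure: 48 hours, 5 concentrations, 96-well plates. The concentration for 50% growth inhibition is given as GI50.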 The source made the active and inactive calls. No stated cut-off is given here; in the data, active = GI50 up to about 1.1 µM and inactive = higher.
Legend:
Assay in all cases: growth of human tumour cells (NCI), 48 h
TK-10 = system: TK-10
K562 = system: K562
UO-31 = system: UO-31
U-251 = system: U-251
SNB-19 = system: SNB-19
CAKI-1 = system: CAKI-1
OVCAR-8 = system: OVCAR-8
MOLT-4 = system: MOLT-4
SN12C = system: SN12C
HT-29 = system: HT-29
M14 = system: M14
CCRF-CEM = system: CCRF-CEM
SW-620 = system: SW-620
SR = system: SR
HL-60 = system: HL-60
OVCAR-5 = system: OVCAR-5
UACC-62 = system: UACC-62
Malme-3M = system: Malme-3M
RXF 393 = system: RXF 393

Measured: GI50

Cc1ccc(C)c2sc3cc(=O)ccc-3nc12
inactive: TK-10 26.3 µM | K562 16 µM | UO-31 45.5 µM | U-251 35.7 µM | SNB-19 91.6 µM | CAKI-1 22 µM | OVCAR-8 35.2 µM | MOLT-4 15 µM | SN12C 57.7 µM | HT-29 44 µM | M14 18.2 µM | CCRF-CEM 14.9 µM | SW-620 63.1 µM | SR 26.4 µM | HL-60 10.5 µM | OVCAR-5 30.8 µM | UACC-62 17.5 µM

N=C(N)C1CN(CCc2c[nH]c3ccccc23)C(=O)NC1=O (configuration not stated)
inactive: Malme-3M > 100 µM | TK-10 > 100 µM | K562 > 100 µM | UO-31 > 100 µM | U-251 > 100 µM | SNB-19 > 100 µM | OVCAR-8 > 100 µM | MOLT-4 > 100 µM | SN12C > 100 µM | HT-29 > 100 µM | M14 > 100 µM | CCRF-CEM > 100 µM | SW-620 > 100 µM | SR > 100 µM | HL-60 > 100 µM | OVCAR-5 > 100 µM | UACC-62 > 100 µM

CCCCc1c2c(nc3c1CCC/C3=C\c1ccccc1)/C(=C/c1ccccc1)CCC2
inactive: Malme-3M > 100 µM | TK-10 > 100 µM | K562 > 100 µM | UO-31 > 100 µM | U-251 > 100 µM | SNB-19 > 100 µM | OVCAR-8 > 100 µM | MOLT-4 > 100 µM | SN12C > 100 µM | HT-29 > 100 µM | M14 > 100 µM | CCRF-CEM > 100 µM | SW-620 > 100 µM | SR > 100 µM | HL-60 > 100 µM | UACC-62 > 100 µM

COc1ccc(N[C@H](CSc2ccc(C)cc2)c2ccc(F)cc2)cc1
inactive: TK-10 > 100 µM | K562 52 µM | UO-31 > 100 µM | U-251 > 100 µM | SNB-19 > 100 µM | CAKI-1 > 100 µM | OVCAR-8 > 100 µM | MOLT-4 3.23 µM | RXF 393 68.5 µM | SN12C > 100 µM | HT-29 > 100 µM | M14 > 100 µM | CCRF-CEM > 100 µM | SW-620 > 100 µM | SR 25.2 µM | OVCAR-5 > 100 µM | UACC-62 65.8 µM

Oc1cc(C2OCCCO2)cc(O)c1O
inactive: Malme-3M > 100 µM | TK-10 > 100 µM | K562 > 100 µM | UO-31 > 100 µM | U-251 > 100 µM | SNB-19 > 100 µM | CAKI-1 > 100 µM | OVCAR-8 > 100 µM | MOLT-4 > 100 µM | SN12C > 100 µM | HT-29 > 100 µM | M14 > 100 µM | CCRF-CEM > 100 µM | SW-620 > 100 µM | SR > 100 µM | HL-60 > 100 µM | OVCAR-5 > 100 µM | UACC-62 > 100 µM

C=C=C(C)C(=O)N(C(C)C)C(C)C
inactive: Malme-3M > 100 µM | TK-10 > 100 µM | K562 > 100 µM | UO-31 > 100 µM | U-251 > 100 µM | SNB-19 > 100 µM | OVCAR-8 > 100 µM | MOLT-4 > 100 µM | SN12C > 100 µM | HT-29 > 100 µM | M14 > 100 µM | CCRF-CEM > 100 µM | SW-620 > 100 µM | SR > 100 µM | HL-60 > 100 µM | OVCAR-5 > 100 µM | UACC-62 > 100 µM
